Measured values published in PubChem BioAssay (NCI).
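Exposure lasted 48 hours, with cells grown in 96-well plates and compounds tested at five concentrations. At the TGI there is no net growth.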

Assays:
Assay in all cases: NCI-60 cell line screen, 48 h
HOP-18 NSCLC = tested on: HOP-18 NSCLC
HCT-15 colon = tested on: HCT-15 colon
HOP-62 NSCLC = tested on: HOP-62 NSCLC
OVCAR-3 ovarian = tested on: OVCAR-3 ovarian
DLD-1 colon = tested on: DLD-1 colon
A549 NSCLC = tested on: A549 NSCLC
TK-10 renal = tested on: TK-10 renal
IGROV1 ovarian = tested on: IGROV1 ovarian
SK-OV-3 ovarian = tested on: SK-OV-3 ovarian
HOP-92 NSCLC = tested on: HOP-92 NSCLC
RXF 393 renal = tested on: RXF 393 renal
HL-60(TB) leukemia = tested on: HL-60(TB) leukemia
SK-MEL-2 melanoma = tested on: SK-MEL-2 melanoma
M19-MEL melanoma = tested on: M19-MEL melanoma
RPMI-8226 leukemia = tested on: RPMI-8226 leukemia
MALME-3M melanoma = tested on: MALME-3M melanoma
KM20L2 colon = tested on: KM20L2 colon
SR leukemia = tested on: SR leukemia
U251 CNS = tested on: U251 CNS
UO-31 renal = tested on: UO-31 renal
CAKI-1 renal = tested on: CAKI-1 renal
OVCAR-4 ovarian = tested on: OVCAR-4 ovarian
SK-MEL-5 melanoma = tested on: SK-MEL-5 melanoma
KM12 colon = tested on: KM12 colon
OVCAR-8 ovarian = tested on: OVCAR-8 ovarian
OVCAR-5 ovarian = tested on: OVCAR-5 ovarian
M14 melanoma = tested on: M14 melanoma
SK-MEL-28 melanoma = tested on: SK-MEL-28 melanoma
SF-268 CNS = tested on: SF-268 CNS
HCC-2998 colon = tested on: HCC-2998 colon
HT29 colon = tested on: HT29 colon
SF-539 CNS = tested on: SF-539 CNS
SF-295 CNS = tested on: SF-295 CNS
COLO 205 colon = tested on: COLO 205 colon
DMS 114 small cell lung = tested on: DMS 114 small cell lung
786-0 renal = tested on: 786-0 renal
K-562 leukemia = tested on: K-562 leukemia
HCT-116 colon = tested on: HCT-116 colon
MOLT-4 leukemia = tested on: MOLT-4 leukemia
NCI-H23 lung = tested on: NCI-H23 lung
UACC-62 melanoma = tested on: UACC-62 melanoma
EKVX NSCLC = tested on: EKVX NSCLC
SNB-78 CNS = tested on: SNB-78 CNS
SW-620 colon = tested on: SW-620 colon
SNB-19 CNS = tested on: SNB-19 CNS
NCI-H522 lung = tested on: NCI-H522 lung
NCI-H460 lung = tested on: NCI-H460 lung
UACC-257 melanoma = tested on: UACC-257 melanoma
A498 renal = tested on: A498 renal
DMS 273 small cell lung = tested on: DMS 273 small cell lung
ACHN renal = tested on: ACHN renal
SNB-75 CNS = tested on: SNB-75 CNS
SN12C renal = tested on: SN12C renal
LOX IMVI melanoma = tested on: LOX IMVI melanoma
LXFL 529 NSCLC = tested on: LXFL 529 NSCLC
CCRF-CEM leukemia = tested on: CCRF-CEM leukemia
NCI-H226 lung = tested on: NCI-H226 lung

Measured: TGI

COC1CC(Br)(C#N)C1 (stereo unspecified)
not listed: SW-620 colon | SNB-19 CNS | NCI-H522 lung | NCI-H460 lung | UACC-257 melanoma | A498 renal | DMS 273 small cell lung | ACHN renal | SNB-75 CNS | SN12C renal | LOX IMVI melanoma | LXFL 529 NSCLC | CCRF-CEM leukemia | NCI-H226 lung
> 100 µM: all other assays above

CC1CCC2(OC1)OC1CC3C4CCC5CC(O)CCC5(C)C4CC(=O)OC3(C)C1C2C (stereo unspecified)
not listed: NCI-H226 lung
> 100 µM: all other assays above

CCc1cccc(C)c1NC(=O)CCc1n[nH]c(=S)o1
31.1 µM: HCT-116 colon
58.2 µM: RPMI-8226 leukemia
28 µM: SW-620 colon
not listed: A549 NSCLC | RXF 393 renal | SK-MEL-2 melanoma | SR leukemia | DMS 114 small cell lung | LOX IMVI melanoma
> 100 µM: all other assays above

CCCCCC(/C=C/[C@@H]1[C@H]2CC(=O)O[C@H]2C[C@H]1N1CCOCC1)OC1CCCO1 (stereo partly specified)
not listed: SR leukemia | SN12C renal
> 100 µM: all other assays above

CC1(C)S[C@H](c2ccccc2C(=O)O)N[C@@H]1CC(=O)O
not listed: OVCAR-3 ovarian | TK-10 renal | SK-OV-3 ovarian | HOP-92 NSCLC | SK-MEL-2 melanoma | MALME-3M melanoma | KM20L2 colon | UO-31 renal | CAKI-1 renal | OVCAR-5 ovarian | HCC-2998 colon
> 100 µM: all other assays above
